# Test results taken from paper PMC10180197, “Novel Pyrimidine Derivatives as Antioxidant and Anticancer Agents: Design, Synthesis and Molecular Modeling Studies” (Molecules, 2023).
# Read-outs that look alike come from different tables or passages of the source.
# What was measured:
# [1] = Experimental determination of lipophilicity as RM values (RP-TLC); assay type: physicochemical; conditions: methanol/water 70/30 v/v, 24 °C, SD < 10%
# Text: Lipophilicity is an important physicochemical parameter of a drug candidate, linking solubility and membrane permeability with the ADMET (absorption, distribution, metabolism, elimination and toxicity) properties and the overall suitability of a molecule. Reversed-phase thin-layer chromatography was the method used to experimentally determine the lipophilic character of the synthesized compounds as RM values (Table 2). Lipophilicity was also theoretically calculated as clog P values using the Bio-Loom program of BioByte Corp (http://www.biobyte.com/, (accessed on 1 March 2023)). An attempt was made to correlate the experimental RM values with the theoretically calculated clog P values (Table 2). […] This disagreement could be attributed to several factors, e.g., different solvation, silanophilic interactions and hydrogen bonding.
# Lipophilicity as RM values was determined through reversed-phase TLC (RP-TLC) on silica gel plates impregnated with 5% v/v liquid paraffin in light petroleum ether. Methanol/water mixture (70/30, v/v) was used as mobile phase. Closed chromatography tanks saturated with the mobile phase at 24 °C were used for the development of the plates while the spots were detected under UV light. For the determination of RM values, five individual measurements of Rf values were recorded, and the RM values were derived from the following Equation (1). (1) RM=log1/Rf−1
# [2] = Reducing activity of the stable radical DPPH
# Experimental: All the synthesized compounds were studied for their ability to interact with the stable free 2,2-diphenyl-1-picrylhydrazyl radical (DPPH) at a concentration of 100 μM after 20 min and 60 min (Table 4). This assay is based on the reduction of DPPH by transferring one electron from the antioxidant.
# In vitro study was performed as reported previously by our group. In this experiment, 20 μL of the tested compound (from the stock solution), 980 μL EtOH and 1 mL ethanolic solution of DPPH (100 μM) were added in a testing tube in a final volume of 2 mL. The free radical scavenging ability was evaluated by recording the change of absorbance at 517 nm, produced by the reduction of DPPH, after 20 and 60 min at room temperature.
# [3] = Inhibition of AAPH induced linoleic acid peroxidation
# Experimental: For the lipid peroxidation study, 2,2′-Azobis(2-methylpropionamidine) dihydrochloride (AAPH) was used as the generator of peroxy radicals and sodium linoleate as the substrate that undergoes peroxidation. The conversion of linoleic acid to 13-hydroperoxy-linoleic acid was recorded at 234 nm. The change of absorbance reflects the possible antioxidant activity of the tested compounds, in comparison with the reference compound, Trolox.
# In vitro study was performed as reported previously by our group. AAPH was used as a free radical generator of alkyl peroxyl radicals. For this experimental procedure, 10 μL of the tested compound (from the stock solution), 10 μL sodium linoleate (16 mM), 50 μL AAPH (40 mM) and 930 μL phosphate-buffered solution (pH 7.4) were added in a UV cuvette (1 mL), pre thermostated at 37 °C. The ability of the compounds to prevent the oxidation of linoleic acid from alkyl peroxyl radicals was evaluated by recording the change of absorbance at 234 nm, due to the conversion of linoleic acid to 13-hydroperoxy-linoleic acid. Trolox was used as the reference.
# [4] = MTT cell viability assay, HaCaT; assay type: cell-based, human; conditions: human, HaCaT cells (epidermal keratinocyte cell line); for viability at 24 h, 10 μM: 10 μΜ; for viability at 24 h, 50 μM: 50 μΜ
# Experimental: (§1) The MTT (3-(4,5-dimethylthiazol-2-yl)-2,5-diphenyltetrazolium bromide) assay is a colorimetric method that is used for the evaluation of cell viability. MTT is converted into colored formazan crystals, indicating the activity of mitochondria and therefore the viability of the cells. Unlike dead cells, the metabolic processes of living cells are functional, meaning that the dehydrogenase enzymes are able to reduce the yellow MTT salt solution to purple crystals, at 37 °C. The intensity of the sample’s color, due to the amount of formazan crystals, is proportional to the number of the living cells in it. Additionally, the colored product is dissolved in various solubilizing agents, such as dimethyl sulfoxide (DMSO). The colored products can be quantitatively measured at 450 nm with a plate reader spectrophotometer. In this study, the human epidermal keratinocyte cell line (HaCaT) was treated with different concentrations (100 μM, 50 μM, 10 μM and 1 μM) of the tested compounds and then the viability rates at each effect were calculated.
# (§2) Τhe MTT assay was used to evaluate cell viability or cell toxicity, depending on the cell line being tested. The experimental procedure was performed in a 96-well plate, where the cells were seeded and incubated (37 °C, 5% CO2) for 24 h to grow and cover the surface of the wells. Τhe seeding concentrations for the HaCaT and A549 cells were 30 × 10^4 cells/mL and 20 × 10^4 cells/mL, respectively. After the first incubation, the solutions of the compounds (with different concentrations) were added to the adherent cells and incubated for another 24 h. The compounds were tested in triplicate against the control (only cells in medium), the blank (only medium) and the positive/negative control (cells in 100 μM silibinin solution) triplicates. Silibinin, a flavonoid with known anticancer activities, was used as a negative control for the cell viability assay and as positive control for the cytotoxicity testing assay. The light-sensitive MTT-standard solution was prepared by dissolving 1 mg/mL MTT in PBS and then filtrated (in a […] filter (Millipore, Carrigtwohill, Ireland)). On the third day, an appropriate amount of ΜΤΤ solution was added to each well and the plate was incubated for 4 h. During the incubation time, the formazan crystals were formed, which were then dissolved with 100 μL DMSO per well. Finally, the plate was stirred for 30 min, and the optical density (OD) was measured in a plate reader spectrophotometer at 450 nm.
# HaCaT cell line = experiment: MTT cell viability assay, HaCaT; assay type: cell-based, human; conditions: 24 h
# Experimental: as §1, §2
# A549 cell line = experiment: MTT cytotoxicity assay, A549; assay type: cell-based, human; conditions: 24 h; for cytotoxicity at 10 µM / cytotoxicity at 50 µM / cytotoxicity at 100 µM: Homo sapiens; for cytotoxicity at 10 µM: read-out: % Cell Toxicity 10 μΜ; for cytotoxicity at 50 µM: read-out: % Cell Toxicity 50 μΜ; for cytotoxicity at 100 µM: A549, 100 μΜ, read-out: % Cell Toxicity 100 μΜ
# Experimental: The compounds of this study were also tested for their cytotoxic effects against the adenocarcinomic human alveolar basal epithelial cell line (A549) at different concentrations (100 μM, 75 μΜ, 50 μM and 10 μM).
# as §2
SMILES,RM [1],RA % 100 μM 20 min [2],RA % 100 μM 60 min [2],AAPH % Inhibition 100 μM [3],"viability at 24 h, 10 μM [4]",% Cell Viability 100 μΜ (HaCaT cell line),"cytotoxicity at 10 µM (A549 cell line; A549, 10 μΜ)","cytotoxicity at 50 µM (A549 cell line; A549, 50 μΜ)",cytotoxicity at 100 µM (A549 cell line),"viability at 24 h, 50 μM [4]",AAPH % Inhibition 100 μM ([3]; 100 µM),"viability at 24 h, 1 μM ([4]; 1 μΜ)",% Cell Viability 10 μΜ (HaCaT cell line; 10 μΜ),"viability at 24 h, 100 μM ([4]; 100 μΜ)","% Cell Toxicity 10 μΜ (A549 cell line; A549, 10 μΜ)","% Cell Toxicity 50 μΜ (A549 cell line; A549, 50 μΜ)"
"O=c1[nH]c(=S)[nH]c2nc(-c3ccccc3)cc(-c3ccc(Cl)cc3)c12 [Compound 2e, 5-(4-chlorophenyl)-7-phenyl-2-thioxo-2,3-dihydropyrido [2,3-d]pyrimidin-4(1H)-one]",−0.87,24%,42%,33%,22.9%,no,48%,83.9%,82.1%,,,,,,,
"O=c1[nH]c(=S)[nH]c2nc(-c3ccc(Cl)cc3)cc(-c3cccs3)c12 [Compound 2d, 7-(4-chlorophenyl)-5-(thiophen-2-yl)-2-thioxo-2,3-dihydropyrido [2,3-d]pyrimidin-4(1H)-one]",−0.80,no,no,62%,50%,no,48.6%,100%,100%,,,,,,,
"O=c1[nH]c(=S)[nH]c2nc(-c3ccc(Cl)cc3)cc(-c3ccc(Cl)cc3Cl)c12 [Compound 2h, 7-(4-chlorophenyl)-5-(2,4-dichlorophenyl)-2-thioxo-2,3-dihydropyrido [2,3-d]pyrimidin-4(1H)-one]",−0.48,no,no,99%,100%,no,49.1%,76.9%,100%,89.9%,,,,,,
"O=c1[nH]c(=S)[nH]c2nc(-c3ccc(Cl)cc3)cc(-c3ccc(Cl)cc3)c12 [Compound 2f, 5,7-bis(4-chlorophenyl)-2-thioxo-2,3-dihydropyrido [2,3-d]pyrimidin-4(1H)-one]",−0.91,no,no,no activity,,no,48.6%,88.1%,100%,,no,73.4%,no,,,
"O=C(/C=C/c1ccc(Cl)cc1Cl)c1ccccc1 [Compound 1g, (E)-3-(2,4-dichlorophenyl)-1-phenylprop-2-en-1-one]",−0.21,2%,8%,39%,100%,,,,10.8%,32.7%,,,,2.1%,no,no
"O=c1[nH]c(=S)[nH]c2nc(-c3ccccc3)cc(-c3ccc(Cl)cc3Cl)c12 [Compound 2g, 5-(2,4-dichlorophenyl)-7-phenyl-2-thioxo-2,3-dihydropyrido [2,3-d]pyrimidin-4(1H)-one]",−0.60,1%,no,95%,56.7%,no,,79.1%,79.4%,,,,,,,
"O=c1[nH]c(=S)[nH]c2nc(-c3ccccc3)cc(-c3ccccc3)c12 [Compound 2a, 5,7-diphenyl-2-thioxo-2,3-dihydropyrido [2,3-d]pyrimidin-4(1H)-one]",−0.95,29%,56%,52%,100%,no,56.4%,75%,80.9%,85.6%,,,,,,
"O=C(/C=C/c1ccc(Cl)cc1)c1ccccc1 [Compound 1e, (E)-3-(4-chlorophenyl)-1-phenylprop-2-en-1-one]",−0.50,no,no,4%,100%,no,,6.8%,36.8%,89.9%,,,,,,
"O=C(/C=C/c1ccccc1)c1ccc(Cl)cc1 [Compound 1b, (E)-1-(4-chlorophenyl)-3-phenylprop-2-en-1-one]",−0.50,no,4%,51%,28.1%,no,49.2%,88.1%,100%,,,,,,,
